Measured values as given in patent US11219623B2, “Inflammasome inhibition for the treatment of Parkinson's disease, Alzheimer's disease and multiple sclerosis” (University of Kentucky Research Foundation, priority 2015, dated 2022).
Converted amounts (≈) assume the structure as drawn. “Also recorded” adds a separate entry of the source.

Tests used:
human P2X7 receptor = target: T1, human P2X7 receptor (Homo sapiens, UniProt Q99572); settings: 64 μM drug; bzATP 100 μM; n=12
T1 sequence (Q99572 1-595): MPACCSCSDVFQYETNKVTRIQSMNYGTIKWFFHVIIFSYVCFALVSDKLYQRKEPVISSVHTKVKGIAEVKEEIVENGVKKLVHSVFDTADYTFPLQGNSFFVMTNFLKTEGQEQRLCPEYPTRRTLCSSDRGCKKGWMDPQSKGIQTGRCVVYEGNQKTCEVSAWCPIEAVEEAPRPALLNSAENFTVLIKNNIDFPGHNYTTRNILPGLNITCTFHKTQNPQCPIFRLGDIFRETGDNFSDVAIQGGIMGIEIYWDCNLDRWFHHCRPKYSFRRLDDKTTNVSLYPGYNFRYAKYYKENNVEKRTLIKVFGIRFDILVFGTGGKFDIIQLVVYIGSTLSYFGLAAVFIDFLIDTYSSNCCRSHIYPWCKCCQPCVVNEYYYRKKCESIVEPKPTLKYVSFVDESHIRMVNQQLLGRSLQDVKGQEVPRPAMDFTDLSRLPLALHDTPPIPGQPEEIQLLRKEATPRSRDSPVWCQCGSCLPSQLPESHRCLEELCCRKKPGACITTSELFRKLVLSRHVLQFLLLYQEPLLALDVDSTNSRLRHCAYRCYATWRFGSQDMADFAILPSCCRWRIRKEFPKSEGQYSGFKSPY

Caspase-1 [1] = assay: Alu RNA-induced Caspase-1 activation, western blot, primary human RPE cells; assay type: cell-based
Text: The bottom row in FIG. 5 is a vinculin loading control.

[2] = LogP, partition coefficient in 1-octanol; assay type: physicochemical; settings: 1-octanol partition
Solubility in water = assay type: physicochemical; settings: aqueous buffer; Water pH 7.2 at 37° C.
Caspase-1 [3] = assay: Iron (III) ammonium citrate-induced Caspase-1 activation, western blot, primary human RPE cells; assay type: cell-based; settings: Fe(III) ammonium citrate (100 μM)
Text: Caspase-1 activation (p20 subunit) in primary human retinal pigment epithelium (RPE) cells in the presence of iron (III) ammonium citrate was studied.
Caspase-1 activation (p10 subunit) in primary human RPE cells in the presence of iron (III) ammonium citrate was studied.
Alu RNA is a toxic endogenous retroelement that accumulates in and causes death of the RPE in patients with dry AMD. […] FAC activates Caspase-1 via an Alu RNA intermediate, and induces NLRP3-dependent RPE degeneration (Gelfand et al. Cell Reports 2015). Fe(III) ammonium citrate (100 μM)-induced Caspase-1 activation in primary human RPE cells, monitored by western blotting, is reduced by TM-3TC (25 μM), d4T-ene (25 μM), 2Me-d4T (25 μM), Me-AZT (25-100 μM), and 2Me-AZT (25 μM). N=3-4.

Caspase-1 [4] = assay: iGLuc luminescence assay of ATP-induced Caspase-1 activation in J774 iGLuc cells; assay type: cell-based, mouse; settings: for Caspase-1 cleavage (luminescence): ATP 5 mM, drug 1 nM-100 μM, N=3; for reduction of inflammasome activation: ATP (5 mM), mouse J774 iGLuc cells, FIGS. 70-73
Method: Caspase-1 is the enzyme at the core of the inflammasome complex and is an important danger response signal and mediator of RPE cell death in AMD. […] Importantly, there was some difference between individual compounds in terms of the dose response curve, emphasizing the need to test each compound (with unique R group(s)) individually.
To obtain the data set forth in FIGS. 64-73, an iGLuc assay was conducted (modified from Bartok et al. iGLuc: a luciferase-based inflammasome and protease activity reporter. Nature Methods 2013; 10(2):147-54). Briefly, 100,000 iGLuc cells per well were plated in a 96 well plate overnight. The next morning, media is aspirated from the plate and replaced with 75 μL of serum free DMEM with drugs (NRTIs or modified NRTIs) for 30 min. After 30 minutes of drug exposure, 20 mM ATP (25 μL) is added for a final concentration of 5 mM. 50 μL of media from each well is collected and 50 μL of coelenterazine 4.4 μM is added to each sample, and luminescence is read immediately.

[5] = test system: human LINE-1 retrotransposon; assay: EGFP cell culture L1 retrotransposition assay in HeLa cells; assay type: cell-based; settings: 7 days after transfection, flow cytometry
Method: These findings pave way for the rational re-design and improvement of nucleoside analogs as novel therapeutics. The enhanced green fluorescent protein (EGFP) cell culture L1 retrotransposition assay was performed in HeLa cells. […] Transfected cells were selected in puromycin. 7 days after transfection, cells that underwent retrotransposition (EGFP-positive) were assayed by flow cytometry. Cells were gated based on background fluorescence of plasmid JM111, which has two point mutations in L1-ORF1 that abolish retrotransposition. Data are normalized with RPS set to 1.

wild-type mice [6] = assay: pAlu-induced RPE degeneration, mouse model of dry AMD; assay type: in vivo; settings: intraperitoneal 25 mg/kg twice daily
Method: Mouse studies were conducted to study treatment with NRTIs or derivatives.

wild-type mice [7] = assay: Laser-induced choroidal neovascularization (CNV; wet AMD) in wild-type mice; settings: intravitreous 0.14 nmol; day 7; N=16
wild-type mice [8] = assay: Alu RNA-induced RPE degeneration, mouse model of dry AMD; settings: intraperitoneal 25 mg/kg, twice daily for 6 days
[9] = test system: GFP-expressing lentivirus; assay: GFP-expressing lentivirus transduction/replication assay in HeLa cells; assay type: cell-based; settings: 10 μM; 72 hours; MOI 20
Method: All drugs were added at a concentration of 10 μM. Cells were imaged for GFP expression 72 hours after addition of lentivirus. GFP-positive cells per field of view were recorded. n=4-11, error bars S.E.M. Reverse transcription of lentivirus is essential for GFP expression; modified NRTIs should not block reverse transcriptase, whereas NRTIs are known to block reverse transcriptase.
The present disclosure further provides the results of additional experiments in FIG. 21-FIG. 23.

mtDNA = assay: Relative quantity of mtDNA, quantitative PCR, primary human RPE cells; settings: 50 μM; four days; relative to DMSO
IL-18 = assay: LPS/ATP-induced IL-18 maturation, mouse bone marrow-derived macrophages; assay type: cell-based; settings: 100 uM; cell culture supernatants
IL-1 beta = assay: MSU-induced IL-1 beta secretion from PMA-differentiated THP-1 monocytes, ELISA; assay type: cell-based, human; settings: 25-1000 uM
Text: Human THP-1 monocytes were differentiated into macrophages with PMA.
To illustrate this, human THP-1 monocytes were differentiated into macrophages with PMA. Treatment with MSU increased IL-1 beta secretion compared to non-treated cells. […]

Caspase-1 [10] = assay: LPS/ATP-induced Caspase-1 activation, mouse bone marrow-derived macrophages, western blot; settings: 100 uM; cell culture supernatants

Compound | logP [2] | solubility (Solubility in water) | Caspase-1 cleavage (luminescence) (Caspase-1 [4]) | L1 retrotransposition (EGFP-positive cells) [5] | pAlu-induced RPE degeneration (wild-type mice [6]) | further results
Clc1cccc(-c2nnnn2Cc2cccnc2)c1Cl [Kamuvudine A438079] |  |  |  |  |  | P2X7-mediated YO-PRO-1 dye uptake induced by bzATP (human P2X7 receptor): inhibited
Clc1ccc(C(c2ccc(Cl)cc2)n2cc[n+](CC(OCc3ccc(Cl)cc3Cl)c3ccc(Cl)cc3Cl)c2)cc1 (centres unmarked) [calmidazolium, reference compound] |  |  |  |  |  | Alu RNA-induced Caspase-1 activation/cleavage (Caspase-1 [1]; concentration not given): not inhibited
C=C1C=C[C@H](n2cc(C)c(=O)[nH]c2=O)O1 [d4T-ene] |  |  |  |  |  | Alu RNA induced Caspase-1 activation (Caspase-1 [1]; 25-100 μM (25 and 100 μM)): blocked Alu-induced Caspase-1 activation; also recorded: reduced; iron-induced Caspase-1 activation (Caspase-1 [3]; 25 μM): blocked iron-induced Caspase-1 activation; also recorded: reduced
CCOC[C@H]1O[C@@H](n2ccc(N(CC)CC)nc2=O)CS1 (stereo in doubt) [Kamuvudine 3Et-3TC, 4-(diethylamino)-1-[2-(ethoxymethyl)-1,3-oxathiolan-5-yl]-1,2-dihydropyrimidin-2-one] | 1.16 | 1600 µg/mL (≈ 5.1 mM) | reduces Caspase-1 cleavage in a dose-dependent fashion | some residual interference with natural L1 activity | protects against RPE degeneration | choroidal neovascularization (CNV) volume (wild-type mice [7]): reduced choroidal neovascularization (CNV) volume
COCC1O[C@@H](n2cc(C)c(=O)[nH]c2=O)CC1N=[N+]=N (stereo partly drawn) [Me-AZT, 1-[(5R)-2-(methoxymethyl)-5-(5-methyl-2,4-dioxo-1,2,3,4-tetrahydropyrimidin-1-yl)oxolan-3-yl]triaza-1,2-dien-2-ium] |  |  |  | no effect on L1 activity | restored to healthy RPE morphology/intercellular junctions | iron-induced Caspase-1 activation (Caspase-1 [3]; 25-100 μM): reduced; lentivirus replication (GFP-positive cells per field) [9]: do not block lentivirus replication; relative quantity of mtDNA (mtDNA depletion) (mtDNA): do not exhibit mtDNA depletion
Nc1ncnc2c1ncn2[C@@H]1O[C@H](CO)C[C@H]1O [cordycepin] |  |  |  |  |  | Alu RNA-induced Caspase-1 maturation (Caspase-1 [1]; 50-100 uM, 24 hours after Alu administration): blocked; IL-18 maturation induced by LPS/ATP (IL-18): inhibit; IL-1beta secretion induced by MSU (IL-1 beta): did not significantly affect IL-1beta secretion; Caspase-1 activation (active p20 band) induced by LPS/ATP (Caspase-1 [10]): inhibit Caspase-1 activation
CCOC[C@H]1O[C@@H](n2cc(C)c(=O)n(CC)c2=O)C[C@@H]1N=[N+]=[N-] [Kamuvudine 2Et-AZT, 1-[(2R,4S,5 S)-4-azido-5-(ethoxymethyl)oxolan-2-yl]-3-ethyl-5-methyl-1,2,3,4-tetrahydropyrimidine-2,4-dione] | 1.17 | 10 µg/mL (≈ 0.0309 mM) | reduces Caspase-1 cleavage in a dose-dependent fashion | no effect on L1 activity | protects against RPE degeneration | choroidal neovascularization (CNV) volume (wild-type mice [7]): reduced choroidal neovascularization (CNV) volume
COC[C@H]1O[C@@H](n2cc(C)c(=O)n(C)c2=O)C[C@@H]1N=[N+]=[N-] [Kamuvudine 2Me-AZT, 1-[(2R,4S,5S)-4-azido-5-(methoxymethyl)oxolan-2-yl]-3,5-dimethyl-1,2,3,4-tetrahydropyrimidine-2,4-dione] | 0.45 | 940 µg/mL (≈ 3.18 mM) | reduces Caspase-1 cleavage in a dose-dependent fashion | no effect on L1 activity | restored to healthy RPE morphology/intercellular junctions | Alu RNA induced Caspase-1 activation (Caspase-1 [1]; 25 μM, N=3-4): reduced; iron-induced Caspase-1 activation (Caspase-1 [3]; 25 μM): reduced; lentivirus replication (GFP-positive cells per field) [9]: do not block lentivirus replication; relative quantity of mtDNA (mtDNA depletion) (mtDNA): do not exhibit mtDNA depletion

The next lines start with results.

logP [2] | solubility (Solubility in water) | Compound | Caspase-1 cleavage (luminescence) (Caspase-1 [4]) | L1 retrotransposition (EGFP-positive cells) [5] | pAlu-induced RPE degeneration (wild-type mice [6]) | further results
-1.1 | 64000 µg/mL (≈ 279 mM) | Nc1ccn([C@@H]2CS[C@H](CO)O2)c(=O)n1 [reference compound] |  |  |  | 
0.99 | 1500 µg/mL (≈ 5.63 mM) | CCn1c(=O)c(C)cn([C@H]2C=C[C@@H](COC)O2)c1=O [O-Me N-Et d4T, 3-ethyl-1-[(2R,5S)-5-(methoxymethyl)-2,5-dihydrofuran-2-yl]-5-methyl-1,2,3,4-tetrahydropyrimidine-2,4-dione] | reduces Caspase-1 cleavage in a dose-dependent fashion |  |  | reduction of inflammasome activation (Caspase-1 [4]): about 55%; Alu RNA induced Caspase-1 activation (Caspase-1 [1]; 25 μM, N=3-4): reduced; Alu RNA-induced RPE degeneration (wild-type mice [8]): protects against Alu RNA-induced RPE degeneration; choroidal neovascularization (CNV) volume (wild-type mice [7]): reduced choroidal neovascularization (CNV) volume
1.35 | 90 µg/mL (≈ 0.321 mM) | CCOC[C@@H]1C=C[C@H](n2cc(C)c(=O)n(CC)c2=O)O1 [Kamuvudine 2Et-d4T, 1-[(2R,5 S)-5-(ethoxymethyl)-2,5-dihydrofuran-2-yl]-3-ethyl-5-methyl-1,2,3,4-tetrahydropyrimidine-2,4-dione] | reduces Caspase-1 cleavage in a dose-dependent fashion | no effect on L1 activity | protects against RPE degeneration | reduction of inflammasome activation (Caspase-1 [4]): about 45%; Alu RNA induced Caspase-1 activation (Caspase-1 [1]; 25 μM, N=3-4): reduced
